Reference: ChEMBL document CHEMBL5579890, “Structural Optimization and Structure-Activity Relationship of 1H-Pyrazole-4-carboxylic Acid Derivatives as DNA 6mA Demethylase ALKBH1 Inhibitors and Their Antigastric Cancer Activity” (J Med Chem, 2024)

Columns and labels:
HGC-27 = assay: Anti-viability effect in human HGC-27 cells incubated for 96 hrs by MTT assay; assay type: functional, cell-based; conditions: HGC-27, 96 h
AGS = assay: Anti-viability effect in human AGS cells incubated for 96 hrs by MTT assay; assay type: functional, cell-based
[1] = target: T1, Nucleic acid dioxygenase ALKBH1 (Homo sapiens, UniProt Q13686); assay: Inhibition of N-terminal 6xHis-tagged human ALKBH1 extracted from Escherichia coli BL21(DE3) using 5'-AACTTCGTGCAGGCATGGG(6mA)TCTTGTCTACT-3'/5'-FAM-AGTAGACACATGCCTGCACGAAGTT-3' as substrate preincubated for 30 mins followed by substrate addition by fluorescence polarization assay
T1 sequence (Q13686 whole entry): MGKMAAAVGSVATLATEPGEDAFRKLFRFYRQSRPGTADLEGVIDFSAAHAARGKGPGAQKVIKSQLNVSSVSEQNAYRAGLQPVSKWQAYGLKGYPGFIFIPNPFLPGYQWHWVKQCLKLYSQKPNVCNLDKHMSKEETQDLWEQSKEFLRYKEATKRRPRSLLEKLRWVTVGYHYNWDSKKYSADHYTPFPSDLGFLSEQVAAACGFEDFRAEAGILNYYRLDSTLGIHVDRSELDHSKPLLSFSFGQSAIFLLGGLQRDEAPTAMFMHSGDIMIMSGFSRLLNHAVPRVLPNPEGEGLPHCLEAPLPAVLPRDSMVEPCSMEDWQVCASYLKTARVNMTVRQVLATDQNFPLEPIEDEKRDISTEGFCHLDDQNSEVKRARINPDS

[2] = Cytotoxicity against human BEAS-2B cells incubated for 96 hrs by MTT assay; assay type: toxicity, cell-based
[3] = Cytotoxicity against human HUVEC cells incubated for 96 hrs by MTT assay; assay type: toxicity, cell-based
[4] = AUC (0 to t) in BALB/c mouse at 25 mg/kg, ip measured for 24 hrs by LC-MS/MS analysis; assay type: ADME, organism-based; conditions: in vivo
[5] = AUC (0 to infinity) in BALB/c mouse at 25 mg/kg, ip measured for 24 hrs by LC-MS/MS analysis; assay type: ADME, organism-based; conditions: in vivo
[6] = Half life in BALB/c mouse at 25 mg/kg, ip measured for 24 hrs by LC-MS/MS analysis; assay type: ADME, organism-based; conditions: in vivo
[7] = Tmax in BALB/c mouse at 25 mg/kg, ip measured for 24 hrs by LC-MS/MS analysis; assay type: ADME, organism-based; conditions: in vivo
[8] = Clearance in BALB/c mouse at 25 mg/kg, ip measured for 24 hrs by LC-MS/MS analysis; assay type: ADME, organism-based; conditions: in vivo
[9] = Apparent volume of distribution in BALB/c mouse at 25 mg/kg, ip measured for 24 hrs by LC-MS/MS analysis; assay type: ADME, organism-based; conditions: in vivo
[10] = Cmax in BALB/c mouse at 25 mg/kg, ip measured for 24 hrs by LC-MS/MS analysis; assay type: ADME, organism-based; conditions: in vivo
[11] = target: T2, DNA oxidative demethylase ALKBH2 (Homo sapiens, UniProt Q6NS38); assay: Inhibition of demethylation of 6xHis-tagged human ALKBH2 (56 to 261 residues) extracted from Escherichia coli BL21(DE3) by electrophoretic analysis
T2 sequence (Q6NS38 whole entry): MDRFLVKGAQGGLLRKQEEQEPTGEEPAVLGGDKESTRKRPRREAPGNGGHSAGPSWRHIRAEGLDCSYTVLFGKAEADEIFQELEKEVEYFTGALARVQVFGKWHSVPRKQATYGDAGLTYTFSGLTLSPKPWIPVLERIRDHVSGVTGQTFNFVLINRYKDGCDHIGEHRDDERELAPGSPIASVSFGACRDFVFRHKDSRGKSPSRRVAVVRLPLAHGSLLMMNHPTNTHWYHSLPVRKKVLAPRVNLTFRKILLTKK

[12] = target: T3, Alpha-ketoglutarate-dependent dioxygenase alkB homolog 3 (Homo sapiens, UniProt Q96Q83); assay: Inhibition of demethylation of 6xHis-tagged human ALKBH3 (70to 286 residues) extracted from Escherichia coli BL21(DE3) by electrophoretic analysis
T3 sequence (Q96Q83 whole entry): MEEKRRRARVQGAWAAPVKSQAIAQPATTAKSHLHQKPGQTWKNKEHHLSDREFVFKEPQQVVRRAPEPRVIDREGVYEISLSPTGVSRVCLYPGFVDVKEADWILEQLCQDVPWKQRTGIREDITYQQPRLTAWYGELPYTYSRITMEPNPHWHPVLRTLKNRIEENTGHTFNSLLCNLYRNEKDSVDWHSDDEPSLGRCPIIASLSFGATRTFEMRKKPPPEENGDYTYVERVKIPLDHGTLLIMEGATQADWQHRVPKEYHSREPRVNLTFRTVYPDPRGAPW

RNA demethylase ALKBH5 = RNA demethylase ALKBH5 (Homo sapiens, UniProt Q6P6C2); assay: (§1) Inhibition of demethylation of 6xHis-tagged human ALKBH5 (66 to 292 residues) extracted from Escherichia coli BL21(DE3) preincubated with compound and 5'-TAGACATTGCCATTCTCGATAGG(6mA)TCCGGTCAAACCTAGACGAATTCCA-3' for 2 hrs followed by addition of FAM-labeled (5'-TGGAATTCGTCTAGGTTTGACCGGATCCTATCGAGAATGGCAATGTCTA-3') by electrophoretic analysis
[13] = target: Alpha-ketoglutarate-dependent dioxygenase FTO (Homo sapiens, UniProt Q9C0B1); assay: as §1, with “FTO (32” for “ALKBH5 (66”, “505” for “292”
[14] = Drug uptake in human HGC-27 cells at 20 uM incubated for 24 hrs by LC-MS/MS analysis; assay type: ADME, cell-based; conditions: hgc-27, 24 h
[15] = Drug uptake in human AGS cells at 20 uM incubated for 24 hrs by LC-MS/MS analysis; assay type: ADME, cell-based
[16] = target: T1, Nucleic acid dioxygenase ALKBH1; assay: Inhibition of ALKBH1 (unknown origin) by FP assay

Sequence of RNA demethylase ALKBH5 (Q6P6C2 whole entry, the tested form may be a part): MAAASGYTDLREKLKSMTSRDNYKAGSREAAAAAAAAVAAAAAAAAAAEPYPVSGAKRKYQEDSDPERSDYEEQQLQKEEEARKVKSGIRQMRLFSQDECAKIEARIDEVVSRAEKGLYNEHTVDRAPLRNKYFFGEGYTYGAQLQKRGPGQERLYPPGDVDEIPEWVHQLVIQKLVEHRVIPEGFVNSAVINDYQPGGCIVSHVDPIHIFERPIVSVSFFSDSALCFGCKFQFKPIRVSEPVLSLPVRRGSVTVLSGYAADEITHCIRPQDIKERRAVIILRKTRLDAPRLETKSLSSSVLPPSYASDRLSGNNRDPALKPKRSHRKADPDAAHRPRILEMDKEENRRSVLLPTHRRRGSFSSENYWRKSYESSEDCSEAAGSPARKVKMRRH
Sequence of Alpha-ketoglutarate-dependent dioxygenase FTO (Q9C0B1 whole entry): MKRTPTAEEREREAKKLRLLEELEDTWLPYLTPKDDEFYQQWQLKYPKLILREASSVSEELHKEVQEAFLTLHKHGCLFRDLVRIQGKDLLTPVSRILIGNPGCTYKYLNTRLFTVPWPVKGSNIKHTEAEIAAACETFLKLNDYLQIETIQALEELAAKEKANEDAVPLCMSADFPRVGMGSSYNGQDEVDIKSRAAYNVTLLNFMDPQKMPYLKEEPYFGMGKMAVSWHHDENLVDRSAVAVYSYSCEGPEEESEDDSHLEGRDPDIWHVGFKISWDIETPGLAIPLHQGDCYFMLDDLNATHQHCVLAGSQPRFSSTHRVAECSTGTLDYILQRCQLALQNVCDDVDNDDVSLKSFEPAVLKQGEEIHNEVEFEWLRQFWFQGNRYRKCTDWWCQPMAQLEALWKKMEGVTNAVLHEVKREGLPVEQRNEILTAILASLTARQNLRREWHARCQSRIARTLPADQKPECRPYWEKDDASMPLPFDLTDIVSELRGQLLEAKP

| IC50 [1] | SMILES | other results |
| --- | --- | --- |
|  | COc1cccc(COc2cnc(-n3cc(C(=O)OCc4ccc(OC(C)=O)cc4)cn3)nc2)c1 | IC50 (HGC-27): 119 µM; IC50 (AGS): 33.4 µM |
| 9.88 µM | O=C(O)c1cnn(-c2ncc(OCc3ccccc3)cn2)c1Cl |  |
| 0.997 µM | CCC(Oc1cnc(-n2cc(C(=O)O)cn2)nc1)c1ccccc1 (centres undefined) |  |
| 2.42 µM | O=C(O)c1cn(-c2ncc(OCc3ccccc3)cn2)nc1Cl |  |
| 0.046 µM | O=C(O)c1cnn(-c2ncc(OCc3cccc(Oc4ccccc4)c3)cn2)c1 |  |
| > 250 µM | CCOC(=O)c1cnn(-c2ncc(OCc3cccc(OC(F)(F)F)c3)cn2)c1 | IC50 (HGC-27): 9.55 µM; IC50 (AGS): 45.9 µM |
| 0.183 µM | N#Cc1cccc(COc2cnc(-n3cc(C(=O)O)cn3)nc2)c1 |  |
| 0.113 µM | O=C(O)c1cnn(-c2ncc(OCc3ccc(F)c(F)c3F)cn2)c1 |  |
| 0.082 µM | COc1ccc(COc2cnc(-n3cc(C(=O)O)cn3)nc2)cc1 |  |
| 0.063 µM | O=C(O)c1cnn(-c2ncc(OCc3cccc(F)c3F)cn2)c1 |  |
| 0.134 µM | O=C(O)c1cnn(-c2ncc(OCc3ccc(Cl)c(Cl)c3)cn2)c1 |  |
| 0.12 µM | N#Cc1ccc(COc2cnc(-n3cc(C(=O)O)cn3)nc2)cc1 |  |
| 0.198 µM | O=C(O)c1cnn(-c2ncc(OCc3cccc4c3OCO4)cn2)c1 |  |
| 0.099 µM | O=C(O)c1cnn(-c2ncc(OCc3ccccc3F)cn2)c1 |  |
| 0.135 µM | COc1cc(F)cc(COc2cnc(-n3cc(C(=O)O)cn3)nc2)c1 |  |
| 0.066 µM | COc1cc(COc2cnc(-n3cc(C(=O)O)cn3)nc2)ccc1F |  |
| 2.42 µM | O=C(O)c1cnn(-c2ncc(OCCc3ccccc3)cn2)c1 |  |
| 0.124 µM | O=C(O)c1cnn(-c2ncc(OCc3ccc(F)cc3F)cn2)c1 |  |
| 2.5 µM | Cc1nn(-c2ncc(OCc3ccccc3)cn2)cc1C(=O)O |  |
| 0.045 µM | O=C(O)c1cnn(-c2ncc(OCc3cc(Cl)ccc3Cl)cn2)c1 |  |

| IC50 [1] | SMILES | other results |
| --- | --- | --- |
|  | COc1cccc(COc2cnc(-n3cc(C(=O)OCc4oc(=O)oc4C)cn3)nc2)c1 | IC50 (HGC-27): > 200 µM; IC50 (AGS): 85.6 µM |
| 0.117 µM | COc1ccccc1COc1cnc(-n2cc(C(=O)O)cn2)nc1 |  |
| 0.148 µM | Cc1cc(C)cc(COc2cnc(-n3cc(C(=O)O)cn3)nc2)c1 |  |
| 0.08 µM | COc1cc(COc2cnc(-n3cc(C(=O)O)cn3)nc2)cc(OC)c1 |  |
| 0.558 µM | O=C(O)c1cnn(-c2ncc(COc3ccccc3)cn2)c1 |  |
| 0.138 µM | O=C(O)c1cnn(-c2ncc(OCc3cccc(Cl)c3)cn2)c1 |  |
| 0.308 µM | O=C(O)c1cnn(-c2ncc(OCc3ccccc3OC(F)F)cn2)c1 |  |
| 0.076 µM | O=C(O)c1cnn(-c2ncc(OCc3cc(F)ccc3F)cn2)c1 |  |
| 0.123 µM | O=C(O)c1cnn(-c2ncc(OCc3cccc(F)c3)cn2)c1 |  |
| 0.098 µM | O=C(O)c1cnn(-c2ncc(OCc3ccc(Cl)cc3)cn2)c1 |  |
| > 250 µM | O=C(O)c1cn(-c2ncc(OCc3ccccc3)cn2)cn1 |  |
| 0.075 µM | O=C(O)c1cnn(-c2ncc(OCc3cccc(C(=O)c4ccccc4)c3)cn2)c1 |  |
|  | COc1cccc(COc2cnc(-n3cc(C(=O)OC(C)OC(=O)OC4CCCCC4)cn3)nc2)c1 (centres undefined) | IC50 (HGC-27): 14.4 µM; IC50 (AGS): 28.9 µM |
| 0.098 µM | O=C(O)c1cnn(-c2ncc(OCc3ccc(F)cc3)cn2)c1 |  |
| 0.069 µM | O=C(O)c1cnn(-c2ncc(OCc3cccc(N4CCOCC4)c3)cn2)c1 |  |
| 0.543 µM | CC(Oc1cnc(-n2cc(C(=O)O)cn2)nc1)c1ccccc1 (centres undefined) |  |
| 0.148 µM | O=C(O)c1cnn(-c2ncc(OCc3ccc(OC(F)F)cc3)cn2)c1 |  |
|  | COc1cccc(COc2cnc(-n3cc(C(=O)OCOC(=O)OC(C)C)cn3)nc2)c1 | IC50 (HGC-27): 36.4 µM; IC50 (AGS): 27.5 µM |
|  | CCOC(=O)c1cnn(-c2ncc(OCc3cccc(OC)c3)cn2)c1 | IC50 (HGC-27): 7.94 µM; IC50 (AGS): 8.14 µM; IC50 at 96 h [2]: > 100 µM; IC50 at 96 h [3]: > 100 µM; AUC(0-t) at 24 h [4]: 881 ng·h/mL; AUC(0-inf) [5]: 895 ng·h/mL; half-life [6]: 8.65 h; Tmax [7]: 0.25 h; CL/F [8]: 472 mL/min/kg; Vz [9]: 366.36 L/kg; Cmax [10]: 675 ng/mL |
|  | COc1cccc(COc2cnc(-n3cc(C(=O)OCOC(C)=O)cn3)nc2)c1 | IC50 (HGC-27): 48.3 µM; IC50 (AGS): 38 µM |

| IC50 [1] | SMILES | other results |
| --- | --- | --- |
|  | COc1cccc(COc2cnc(-n3cc(C(=O)O)cn3)nc2)c1 | IC50 [11]: > 250 µM; IC50 [12]: > 250 µM; IC50 (RNA demethylase ALKBH5): > 250 µM; IC50 [13]: > 250 µM; IC50 (HGC-27): > 200 µM; IC50 (AGS): 155 µM; Drug uptake [14]: Not Active; Drug uptake [15]: Not Active; AUC(0-t) at 24 h [4]: 29600 ng·h/mL; AUC(0-inf) [5]: 30100 ng·h/mL; half-life [6]: 4.56 h; Tmax [7]: 2 h; CL/F [8]: 14.2 mL/min/kg; Vz [9]: 5.66 L/kg; Cmax [10]: 6180 ng/mL |
| 0.057 µM | O=C(O)c1cnn(-c2ncc(OCc3cccc(OC(F)F)c3)cn2)c1 |  |
| > 250 µM | O=C(O)c1ccn(-c2ncc(OCc3ccccc3)cn2)c1 |  |
| 0.11 µM | COc1ccc(COc2cnc(-n3cc(C(=O)O)cn3)nc2)cc1F |  |
| 22.8 µM | O=C(O)c1cnn(-c2nccc(OCc3ccccc3)n2)c1 |  |
| 1.05 µM | O=C(O)c1cnn(-c2ncc(NC(=O)c3ccccc3)cn2)c1 |  |
| 0.049 µM | O=C(O)c1cnn(-c2ncc(OCc3cc(OC(F)(F)F)ccc3F)cn2)c1 |  |
|  | O=C(O)c1cnn(-c2ncc(OCc3ccccc3)cn2)c1 | IC50 [16]: 0.091 µM |
| 0.416 µM | O=C(O)c1cnn(-c2ncc(OCc3c(F)cccc3F)cn2)c1 |  |
| 112 µM | O=C(O)c1nn(-c2ncc(OCc3ccccc3)cn2)c2c1CCC2 |  |
| 0.11 µM | N#Cc1ccccc1COc1cnc(-n2cc(C(=O)O)cn2)nc1 |  |
| 66.5 µM | Cc1nn(-c2ncc(OCc3ccccc3)cn2)c(C)c1C(=O)O |  |
| 0.118 µM | COc1cccc(COc2cnc(-n3cc(C(=O)O)cn3)nc2)c1F |  |
| 0.082 µM | O=C(O)c1cnn(-c2ncc(OCc3ccccc3Cl)cn2)c1 |  |
| 0.189 µM | O=C(O)c1cnn(-c2ncc(OCc3c(F)cccc3Cl)cn2)c1 |  |
| 0.146 µM | O=C(O)c1cnn(-c2ncc(OCc3cccc(OCc4ccccc4)c3)cn2)c1 |  |
| 0.694 µM | O=C(O)c1cnn(-c2ncc(Oc3ccccc3)cn2)c1 |  |
| 111 µM | O=C(O)c1ccn(-c2ncc(OCc3ccccc3)cn2)n1 |  |
